# Results: patent publication US20150164895A1, “DETERMINING SENSITIVITY OF CELLS TO B-RAF INHIBITOR TREATMENT BY DETECTING KRAS MUTATION AND RTK EXPRESSION LEVELS” (GENENTECH, INC., priority 2009, published 2015)
# Where “and” joins values, the source holds several entries; their conditions need not be identical. Identical values can stand only once.
# Columns and labels:
# [1] = system: LXFA 983/9N4 (Lung, adeno); test: Oncotest Exp H331: growth of LXFA 983 lung tumor xenograft after dosing with B-RAF inhibitor; type: in vivo, mice; settings: H331-2, 100 mg/kg/day, Days 0-21; for Absolute body weight, Median / Relative body weight, Median / Absolute tumor volume: (a*b*b)/2, Median / Relative tumor volume, Median: group median; for Absolute body weight, Median / Relative body weight, Median: n 10; for Absolute tumor volume: (a*b*b)/2, Median / Relative tumor volume, Median: n 15; for Relative tumor volume / Absolute tumor volume: (a*b*b)/2: individual tumors
# Excerpt: (§1) FIGS. 10-18 depict growth in lung tumor xenografts after dosing with GDC-0879.
# (§2) The data are shown below, and in FIGS. 10-14 for Experiment H331 and FIGS. 15-18 for Experiment H327.
# lung tumor xenografts = test: Experiment H327: growth in lung tumor xenografts after dosing with B-RAF inhibitor; type: in vivo, mice; settings: H327-2, LXFA 1041/9N4, 100 mg/kg/day po Days 0-20
# Excerpt: as §1, §2
# [2] = study day 3, individual animals, listed as G-026887
# [3] = study day 3, listed as G-026887
# [4] = study day 7, individual animals, listed as G-026887
# [5] = study day 7, listed as G-026887
# [6] = study day 10, individual animals, listed as G-026887
# [7] = study day 10, listed as G-026887
# [8] = study day 14, individual animals, listed as G-026887
# [9] = study day 14, listed as G-026887
# [10] = study day 17, individual animals, listed as G-026887
# [11] = study day 17, listed as G-026887
# [12] = study day 21, individual animals, listed as G-026887
# [13] = study day 21, listed as G-026887
smiles,measurement,setting,value
"OCCn1cc(-c2ccc3c(c2)CC/C3=N\O)c(-c2ccncc2)n1 [GDC-0879, 2-{4-[(1E)-1-(hydroxyimino)-2,3-dihydro-1H-inden-5-yl]-3-(pyridine-4-yl)-1H-pyrazol-1-yl}ethan-1-ol]",Survival time,"[1]; individual animals, listed as G-026887",>22 days (6×) and >21 days (14×)
same,"Absolute body weight, Median",[1]; study day 0,27.5 g
same,"Relative body weight, Median",[1]; study day 0,100.0%
same,"Absolute tumor volume: (a*b*b)/2, Median",[1]; study day 0,117.2 mm3
same,"Relative tumor volume, Median",[1]; study day 0,100.0%
same,Relative body weight,"[1]; study day 0, individual animals",100.0%
same,Absolute body weight,"[1]; study day 0, individual animals, listed as G-026887",27.2 g and 26.9 g and 27.3 g and 26.1 g and 29.4 g and 24.8 g and 31.2 g (2×) and 30.2 g and 27.6 g
same,Relative tumor volume,[1]; study day 0,100.0%
same,Absolute tumor volume: (a*b*b)/2,"[1]; study day 0, listed as G-026887",117.2 mm3 and 121.1 mm3 and 94.1 mm3 and 137.3 mm3 and 237.3 mm3 and 62.5 mm3 and 80.2 mm3 and 123.0 mm3 and 111.6 mm3 and 74.4 mm3 (2×) and 219.4 mm3 and 55.3 mm3 and 150.4 mm3 and 130.7 mm3
same,"Absolute body weight, Median",[1]; study day 3,27.2 g
same,"Relative body weight, Median",[1]; study day 3,97.9%
same,"Absolute tumor volume: (a*b*b)/2, Median",[1]; study day 3,236.3 mm3
same,"Relative tumor volume, Median",[1]; study day 3,211.7%
same,Absolute body weight,[1]; [2],26.8 g and 27.2 g and 26.7 g and 25.6 g and 27.9 g and 24.7 g and 29.4 g and 29.2 g and 27.1 g and 29.6 g
same,Relative body weight,[1]; [2],94.9% (2×) and 98.5% and 101.1% and 97.8% and 98.1% and 99.6% and 94.2% and 96.7% and 98.2%
same,Absolute tumor volume: (a*b*b)/2,[1]; [3],265.6 mm3 and 166.6 mm3 and 188.5 mm3 and 239.1 mm3 and 546.2 mm3 and 176.4 mm3 and 210.9 mm3 and 268.8 mm3 and 236.3 mm3 and 156.8 mm3 and 392.9 mm3 and 119.1 mm3 and 310.7 mm3 and 295.9 mm3 and 83.2 mm3
same,Relative tumor volume,[1]; [3],111.8% and 226.6% and 137.6% and 200.4% and 174.1% and 230.2% and 282.2% and 263.0% and 218.5% and 211.7% and 210.9% and 179.1% and 215.3% and 206.6% and 226.4%
same,"Absolute body weight, Median",[1]; study day 7,27.3 g
same,"Relative body weight, Median",[1]; study day 7,96.5%
same,"Absolute tumor volume: (a*b*b)/2, Median",[1]; study day 7,348.2 mm3
same,"Relative tumor volume, Median",[1]; study day 7,293.3%
same,Absolute body weight,[1]; [4],26.3 g (2×) and 27.4 g and 25.7 g and 27.1 g and 24.2 g and 28.9 g and 28.1 g and 27.6 g and 29.3 g
same,Relative body weight,[1]; [4],93.9% and 96.7% and 101.9% and 96.3% and 98.5% and 92.2% and 97.6% and 92.6% and 93.0% and 100.0%
same,Absolute tumor volume: (a*b*b)/2,[1]; [5],392.9 mm3 and 325.1 mm3 and 261.6 mm3 and 445.5 mm3 and 689.1 mm3 and 289.1 mm3 and 348.2 mm3 and 344.4 mm3 and 455.1 mm3 and 253.1 mm3 and 560.0 mm3 and 216.6 mm3 and 352.5 mm3 and 383.3 mm3
same,Relative tumor volume,[1]; [5],152.3% and 335.2% and 268.5% and 278.0% and 324.4% and 290.4% and 462.6% and 434.2% and 280.0% and 407.8% and 340.4% and 255.3% and 391.6% and 234.4%
same,"Absolute body weight, Median",[1]; study day 10,27.3 g
same,"Relative body weight, Median",[1]; study day 10,97.9%
same,"Absolute tumor volume: (a*b*b)/2, Median",[1]; study day 10,406.6 mm3
same,"Relative tumor volume, Median",[1]; study day 10,392.5%
same,Absolute body weight,[1]; [6],26.7 g (2×) and 26.9 g and 25.6 g and 27.6 g and 25.3 g and 29.1 g (2×) and 28.6 g (2×)
same,Relative body weight,[1]; [6],91.7% and 98.2% and 100.0% and 97.8% and 98.1% and 93.9% and 102.0% and 93.3% and 96.4% and 103.6%
same,Absolute tumor volume: (a*b*b)/2,[1]; [7],431.7 mm3 and 379.3 mm3 and 329.5 mm3 and 539.0 mm3 and 964.8 mm3 and 404.0 mm3 and 612.5 mm3 and 525.4 mm3 and 528.2 mm3 and 302.6 mm3 and 570.0 mm3 and 348.5 mm3 and 372.6 mm3 and 406.6 mm3
same,Relative tumor volume,[1]; [7],269.9% and 368.3% and 313.3% and 350.2% and 392.5% and 406.6% and 646.4% and 763.8% and 427.1% and 473.3% and 406.9% and 259.8% and 630.2% and 247.8%
same,"Absolute body weight, Median",[1]; study day 14,28.6 g
same,"Relative body weight, Median",[1]; study day 14,99.5%
same,"Absolute tumor volume: (a*b*b)/2, Median",[1]; study day 14,578.8 mm3
same,"Relative tumor volume, Median",[1]; study day 14,580.3%
same,Absolute body weight,[1]; [8],26.8 g and 27.2 g and 28.2 g and 25.5 g and 29.1 g and 25.8 g and 29.4 g and 30.2 g and 28.9 g and 30.3 g
same,Relative body weight,[1]; [8],97.1% and 98.5% and 101.1% and 103.3% and 97.7% and 99.0% and 104.0% and 94.2% and 100.0% and 104.7%
same,Absolute tumor volume: (a*b*b)/2,[1]; [9],578.8 mm3 and 655.5 mm3 and 545.9 mm3 and 574.3 mm3 and 1411.2 mm3 and 581.0 mm3 and 1115.4 mm3 and 951.3 mm3 and 891.1 mm3 and 318.2 mm3 and 597.5 mm3 and 390.2 mm3 and 510.0 mm3 and 499.4 mm3
same,Relative tumor volume,[1]; [9],620.2% and 493.8% and 541.3% and 580.3% and 418.3% and 594.7% and 929.7% and 1390.9% and 773.4% and 798.5% and 427.9% and 272.4% and 705.6% and 339.1%
same,"Absolute body weight, Median",[1]; study day 17,28.8 g
same,"Relative body weight, Median",[1]; study day 17,100.8%
same,"Absolute tumor volume: (a*b*b)/2, Median",[1]; study day 17,742.6 mm3
same,"Relative tumor volume, Median",[1]; study day 17,719.8%
same,Absolute body weight,[1]; [10],27.2 g and 27.6 g and 28.5 g and 25.8 g (2×) and 29.5 g (2×) and 30.6 g and 29.0 g and 30.7 g
same,Relative body weight,[1]; [10],98.4% and 100.0% and 102.6% and 104.4% and 98.9% and 100.3% and 104.0% and 94.6% and 101.3% and 105.1%
same,Absolute tumor volume: (a*b*b)/2,[1]; [11],705.7 mm3 and 742.6 mm3 and 701.1 mm3 and 841.5 mm3 and 1708.0 mm3 and 642.0 mm3 and 1229.4 mm3 and 1327.1 mm3 and 1247.1 mm3 and 426.5 mm3 and 778.8 mm3 and 520.5 mm3 and 606.4 mm3 and 758.4 mm3
same,Relative tumor volume,[1]; [11],860.5% and 602.1% and 613.3% and 745.2% and 612.8% and 719.8% and 1027.1% and 1533.1% and 1078.9% and 1117.5% and 573.5% and 355.0% and 941.4% and 403.2%
same,"Absolute body weight, Median",[1]; study day 21,29.0 g
same,"Relative body weight, Median",[1]; study day 21,103.5%
same,"Absolute tumor volume: (a*b*b)/2, Median",[1]; study day 21,958.8 mm3
same,"Relative tumor volume, Median",[1]; study day 21,826.5%
same,Absolute body weight,[1]; [12],28.6 g and 27.5 g and 29.3 g and 26.9 g and 31.1 g and 26.6 g and 30.6 g and 31.0 g and 28.7 g and 31.6 g
same,Relative body weight,[1]; [12],101.3% and 105.1% and 102.2% and 107.3% (2×) and 103.1% and 105.8% and 98.1% and 102.6% and 104.0%
same,Absolute tumor volume: (a*b*b)/2,[1]; [13],893.3 mm3 and 1083.3 mm3 and 715.5 mm3 and 1030.4 mm3 and 1961.1 mm3 and 772.8 mm3 and 1472.3 mm3 and 1618.7 mm3 and 1461.9 mm3 and 550.0 mm3 and 958.8 mm3 and 609.2 mm3 and 712.9 mm3 and 874.7 mm3
same,Relative tumor volume,[1]; [13],1511.3% and 762.1% and 894.7% and 760.5% and 750.4% and 826.5% and 1236.5% and 1836.0% and 1316.0% and 1309.9% and 739.6% and 437.1% and 1101.7% and 474.0%
same,Survival time,"lung tumor xenografts; individual animal, listed as G-026887",>20 days (14×) and >21 days (6×)
same,"Absolute body weight, Median","lung tumor xenografts; study day 0, group median n 10",25.1 g
same,"Relative body weight, Median","lung tumor xenografts; study day 0, group median n 10",100.0%
same,"Absolute tumor volume: (a*b*b)/2, Median","lung tumor xenografts; study day 0, group median n 20",88.5 mm3
same,"Relative tumor volume, Median","lung tumor xenografts; study day 0, group median n 20",100.0%
same,Relative body weight,"lung tumor xenografts; study day 0, individual animal",100.0%
